# Assay results from patent US20220142948A1, “COMPOSITIONS AND METHODS FOR MODULATING METABOLIC REGULATORS OF T CELL PATHOGENICITY” (The Broad Institute, Inc., priority 2019, published 2022).
# Entries after “also recorded” stand apart in the source; their conditions may differ.
# Key:
# Type in all cases: cell-based, mouse
# [1] = test system: Th17 cells (Th17n, Th17p); assay: qPCR of in vitro differentiated T cells
# Protocol: qPCR. RNA was isolated using RNeasy Plus Mini Kit (Qiagen) and reverse transcribed to cDNA with iScript cDNA Synthesis Kit (Bio-Rad). Gene expression was analyzed by quantitative real-time PCR on a ViiA7 System (Thermo Fisher Scientific) using TaqMan Fast
# Advanced Master Mix (Thermo Fisher Scientific) with the following primer/probe sets: Il-17a (Mm00439618_m1), Il-17f (Mm00521423_m1), Foxp3 (Mm00475162_m1), Tead1 (Mm00493507_m1), Taz (Mm00504978_m1), Sat1 (Mm00485911_g1) and Actb (Applied Biosystems). Expression values were calculated relative to Actb detected in the same sample by duplex qPCR.
# qPCR. RNA was isolated using RNeasy Plus Mini Kit (Qiagen) and reverse transcribed to cDNA with iScript cDNA Synthesis Kit (Bio-Rad). Gene expression was analyzed by quantitative real-time PCR on a ViiA7 System (Thermo Fisher Scientific) using TaqMan Fast Advanced Master Mix (Thermo Fisher Scientific) with the following primer/probe sets: Ass1 (Mm00711256_m1), Odc1 (Mm02019269_g1), Sat1 (Mm00485911_g1), Srm (Mm00726089_s1), Sms (Mm00786246_s1), Il-17a (Mm00439618_m1), Il-17f (Mm00521423_m1), Foxp3 (Mm00475162_m1), Tead1 (Mm00493507_m1), Taz (Mm00504978_m1), and Actb (Applied Biosystems). Expression values were calculated relative to Actb detected in the same sample by duplex qPCR.
# [2] = test system: Th17n, Th17p and iTreg cells; assay: Population ATAC-seq chromatin accessibility
# From the text: ATAC-seq. For population ATAC-seq, in vitro differentiated T-cells were sorted for live cells and froze down in Bambanker freezing media (Thermo Fisher Scientific).
# Alignment of ATAC-Seq and Peak Calling. All ATAC-Seq reads were trimmed using Trimmomatic to remove primer and low-quality bases. Reads <36 bp were dropped. Reads were then passed to FastQC [www.bioinformatics.babraham.ac.uk/projects/fastqc/] to check the quality of the trimmed reads. The paired-end reads were then aligned to the mm10 reference genome using bowtie2 [29], allowing maximum insert sizes of 2000 bp, with the “—no-mixed” and “—no-discordant” parameters added. Reads with a mapping quality (MAPA) below 30 were removed. Duplicates were removed with PicardTools, and the reads mapping to the blacklist regions and mitochondrial DNA were also removed. Reads mapping to the positive strand were moved +4 bp, and reads mapping to the negative strand were moved −5 bp following the procedure outlined in [30] to account for the binding of the Tn5 transposase.
# (§1) Peaks were called using macs2 on the aligned fragments with a qvalue cutoff of 0.001 and overlapping peaks among replicates were merged.
# Tests of Differential Accessibility in ChARs. Differential accessibility was assessed using DESeq2 [32] on with a matrix of peaks by samples replacing the genes by samples matrix. Counts of Tn5 cuts were used instead of gene expression values.
# ATAC-seq. For population ATAC-seq, in vitro differentiated T-cells were sorted for live cells and stored in Bambanker freezing media (Thermo Fisher Scientific) at −80° C. until further processing. Prior to library preparation, cells were thawed at 37° C. and washed with PBS. For ATAC-seq, cell pellets were lysed and tagmented in 1×TD Buffer, 0.2 ul TDE1 (Illumina), 0.01% digitonin, and 0.3×PBS in 40 ul reaction volume following the protocol described in [49]. Transposition reactions were incubated at 37° C. for 30 min at 300 rpm. The DNA was purified from the reaction using a MinElute PCR purification kit (QIAGEN). The whole resulting product was then PCR-amplified using indexed primers with NEBNext High-Fidelity 2X PCR Master Mix (NEB). First, Applicants performed 5 cycles of pre-amplification. Applicants sampled 10% of the pre-amplification reaction for SYBR Green quantitative PCR to assess the number of additional cycles needed for final amplification. After purifying the final library with the MinElute PCR purification kit (QIAGEN), the library was quantified for sequencing using qPCR and a Qubit dsDNA HS Assay kit (Invitrogen). Libraries were sequenced on an Illumina NextSeq 550 system with paired-end reads of 37 base pairs in length.
# Alignment of ATAC-Seq and Peak Calling. All ATAC-Seq reads were trimmed using Trimmomatic to remove primer and low-quality bases. Reads <36 bp were dropped. Reads were then passed to FastQC [www.bioinformatics.babraham.ac.uk/projects/fastqc/] to check the quality of the trimmed reads. The paired-end reads were then aligned to the mm10 reference genome using bowtie2 [51], allowing maximum insert sizes of 2000 bp, with the “—no-mixed” and “—no-discordant” parameters added. Reads with a mapping quality (MAPA) below 30 were removed. Duplicates were removed with PicardTools, and the reads mapping to the blacklist regions and mitochondrial DNA were also removed. Reads mapping to the positive strand were moved +4 bp, and reads mapping to the negative strand were moved −5 bp following the procedure outlined in [52] to account for the binding of the Tn5 transposase.
# as §1
# Tests of Differential Accessibility. Differential accessibility was assessed using DESeq2 [54] on with a matrix of peaks (merging all samples) by samples. […]
# [3] = test system: cellular polyamines in Th17p, Th17n and iTregs; assay: Total cellular polyamine content (enzymatic assay, Total Polyamine Assay Kit)
# From the text: Polyamine ELISA. Cell pellets of in vitro differentiated cells were frozen down and further processed with the Total Polyamine Assay Kit (BioVision Inc.) according to the manufacturer's instructions.
# [4] = non-pathogenic and pathogenic Th17 cells
structure (smiles),measurement,setting,value
"NCCC[C@](N)(C(=O)O)C(F)F [DFMO, 2-(difluoromethyl)ornithine]",Ass1 expression,[1],specifically suppresses
same,IL-17 (quantitative real time PCR),[1]; CD4 T cells,decreased
same,SAT1 expression,"[1]; T cells, Th17n and Th17p",reduces the expression; also recorded: decrease; also recorded: specifically suppresses; also recorded: decreases expression; also recorded: consistently suppressed
same,relative expression of Foxp3,[1]; [4],increase
same,relative expression of IL17A,[1]; [4],decrease
same,relative expression of IL17F,[1]; [4],decrease
same,SAT1 expression,[1]; pathogenic Th17 cells,decreased expression
same,ATACseq peaks in the Il23r region,[2],no significant difference
same,accessibility in Th17 specific regions,[2],specifically reduced accessibility; also recorded: reduces accessibility; also recorded: more restricted landscape; also recorded: less accessibility
same,accessibility in Treg specific regions,[2],more accessible landscape; also recorded: more accessibility
same,peaks near regulatory elements for Foxp3 such as CNS2,[2],no differentially expressed peaks
same,peaks in the promoter and intergenic regions of Il17a-Il17f,[2]; Rorgt binding site,significantly restricted peaks
same,accessibility near potential binding sites of JMJD3 and POU-domain TFs,[2]; Th17n cells,increased accessibility
same,accessible peaks overall,[2]; Th cells analyzed,alters chromatin accessibility; also recorded: significant changes in accessible peaks; also recorded: considerable changes in accessible peaks
same,motif enrichment in iTreg-specific accessible regions,[2]; both Th17n and Th17p cells,significant enrichment of BATF and cMAF motifs
same,polyamine concentration,[3]; Th17n cells,decrease; also recorded: suppression of polyamines
same,polyamine concentration,[3]; Th17p cells,decrease; also recorded: suppression of polyamines
same,polyamine concentration,[3]; iTregs,decrease; also recorded: suppression of polyamines
